From ChEMBL document CHEMBL3044719, “Synthesis of pyrazole-based 1,5-diaryl compounds as potent anti-inflammatory agents” (2012)

System: Rattus norvegicus
Test: Anti-inflammatory activity in Rattus norvegicus Wistar albino (rat) assessed as inhibition of carrageenan-induced paw edema after 180 min (reference value: 22.3%)
Format: functional

Structure (SMILES)	inhibition (INH) [%]
COC(=O)c1c(C)nn(-c2ccccc2)c1OCCCOc1c(C(=O)OC)c(C)nn1-c1ccccc1	17.9
COC(=O)c1c(C)nn(-c2ccccc2)c1OCCCN1C(=O)c2ccccc2C1=O	1.7
CCOC(=O)c1c(C)nn(-c2ccccc2)c1OCCCN1C(=O)c2ccccc2C1=O	39.3
COC(=O)c1c(C)nn(-c2ccccc2)c1OCCCn1c(C)cc(C)c(C#N)c1=O	18.5
CCOC(=O)c1c(C)nn(-c2ccccc2)c1OCCCn1c(C)cc(C)c(C#N)c1=O	20.4
COC(=O)c1c(C)nn(-c2ccccc2)c1OCCCOc1nc(C)cc(C)c1C#N	24.9
CCOC(=O)c1c(C)nn(-c2ccccc2)c1OCCCOc1nc(C)cc(C)c1C#N	16.8
CS(=O)(=O)Nc1ccc([N+](=O)[O-])cc1Oc1ccccc1 [NIMESULIDE]	2.54

System: Rattus norvegicus
Test: Anti-inflammatory activity in Rattus norvegicus Wistar albino (rat) assessed as inhibition of carrageenan-induced paw edema after 30 min (reference value: 30.1%)
Format: functional

Structure (SMILES)	inhibition (INH) [%]
COC(=O)c1c(C)nn(-c2ccccc2)c1OCCCOc1c(C(=O)OC)c(C)nn1-c1ccccc1	15.1
COC(=O)c1c(C)nn(-c2ccccc2)c1OCCCN1C(=O)c2ccccc2C1=O	5.9
CCOC(=O)c1c(C)nn(-c2ccccc2)c1OCCCN1C(=O)c2ccccc2C1=O	38.9
COC(=O)c1c(C)nn(-c2ccccc2)c1OCCCn1c(C)cc(C)c(C#N)c1=O	17.6
CCOC(=O)c1c(C)nn(-c2ccccc2)c1OCCCn1c(C)cc(C)c(C#N)c1=O	22.4
COC(=O)c1c(C)nn(-c2ccccc2)c1OCCCOc1nc(C)cc(C)c1C#N	16.8
CCOC(=O)c1c(C)nn(-c2ccccc2)c1OCCCOc1nc(C)cc(C)c1C#N	21.4
CS(=O)(=O)Nc1ccc([N+](=O)[O-])cc1Oc1ccccc1 [NIMESULIDE]	10.8

System: Rattus norvegicus
Test: Anti-inflammatory activity in Rattus norvegicus Wistar albino (rat) assessed as growth of carrageenan-induced paw edema after 90 min (reference value: 1.36 +/- 0.070%)
Format: functional

Structure (SMILES)	Activity [%]
COC(=O)c1c(C)nn(-c2ccccc2)c1OCCCOc1c(C(=O)OC)c(C)nn1-c1ccccc1	1.49
COC(=O)c1c(C)nn(-c2ccccc2)c1OCCCN1C(=O)c2ccccc2C1=O	1.39
CCOC(=O)c1c(C)nn(-c2ccccc2)c1OCCCN1C(=O)c2ccccc2C1=O	1.18
COC(=O)c1c(C)nn(-c2ccccc2)c1OCCCn1c(C)cc(C)c(C#N)c1=O	1.03
CCOC(=O)c1c(C)nn(-c2ccccc2)c1OCCCn1c(C)cc(C)c(C#N)c1=O	1.16
COC(=O)c1c(C)nn(-c2ccccc2)c1OCCCOc1nc(C)cc(C)c1C#N	0.92
CCOC(=O)c1c(C)nn(-c2ccccc2)c1OCCCOc1nc(C)cc(C)c1C#N	1.18
CS(=O)(=O)Nc1ccc([N+](=O)[O-])cc1Oc1ccccc1 [NIMESULIDE]	1.25

System: Rattus norvegicus
Test: Anti-inflammatory activity in Rattus norvegicus Wistar albino (rat) assessed as growth of carrageenan-induced paw edema after 30 min (reference value: 1.27 +/- 0.043%)
Format: functional

Structure (SMILES)	Activity [%]
COC(=O)c1c(C)nn(-c2ccccc2)c1OCCCOc1c(C(=O)OC)c(C)nn1-c1ccccc1	1.34
COC(=O)c1c(C)nn(-c2ccccc2)c1OCCCN1C(=O)c2ccccc2C1=O	1.25
CCOC(=O)c1c(C)nn(-c2ccccc2)c1OCCCN1C(=O)c2ccccc2C1=O	1.11
COC(=O)c1c(C)nn(-c2ccccc2)c1OCCCn1c(C)cc(C)c(C#N)c1=O	0.94
CCOC(=O)c1c(C)nn(-c2ccccc2)c1OCCCn1c(C)cc(C)c(C#N)c1=O	1.05
COC(=O)c1c(C)nn(-c2ccccc2)c1OCCCOc1nc(C)cc(C)c1C#N	0.81
CCOC(=O)c1c(C)nn(-c2ccccc2)c1OCCCOc1nc(C)cc(C)c1C#N	1.22
CS(=O)(=O)Nc1ccc([N+](=O)[O-])cc1Oc1ccccc1 [NIMESULIDE]	1.29

System: Rattus norvegicus
Test: Anti-inflammatory activity in Rattus norvegicus Wistar albino (rat) assessed as inhibition of carrageenan-induced paw edema after 90 min (reference value: 38.7%)

Structure (SMILES)	inhibition (INH) [%]
COC(=O)c1c(C)nn(-c2ccccc2)c1OCCCOc1c(C(=O)OC)c(C)nn1-c1ccccc1	24.4
COC(=O)c1c(C)nn(-c2ccccc2)c1OCCCN1C(=O)c2ccccc2C1=O	4.8
CCOC(=O)c1c(C)nn(-c2ccccc2)c1OCCCN1C(=O)c2ccccc2C1=O	44.7
COC(=O)c1c(C)nn(-c2ccccc2)c1OCCCn1c(C)cc(C)c(C#N)c1=O	29.7
CCOC(=O)c1c(C)nn(-c2ccccc2)c1OCCCn1c(C)cc(C)c(C#N)c1=O	28.5
COC(=O)c1c(C)nn(-c2ccccc2)c1OCCCOc1nc(C)cc(C)c1C#N	28.7
CCOC(=O)c1c(C)nn(-c2ccccc2)c1OCCCOc1nc(C)cc(C)c1C#N	24.6
CS(=O)(=O)Nc1ccc([N+](=O)[O-])cc1Oc1ccccc1 [NIMESULIDE]	7.9
